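Each compound was tested at five concentrations against cells in 96-well plates for 48 hours. The concentration for 50% growth inhibition is given as GI50. TGI: concentration producing complete growth inhibition.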
Tests used:
Experiment in all cases: NCI-60 cell line screen, 48 h
MDA-MB-231 breast = test system: MDA-MB-231 breast
PC-3 prostate = test system: PC-3 prostate
NCI/ADR-RES ovarian = test system: NCI/ADR-RES ovarian
MDA-MB-435 = test system: MDA-MB-435
HS 578T breast = test system: HS 578T breast
BT-549 breast = test system: BT-549 breast

SMILES	GI50 (MDA-MB-231 breast)	TGI (MDA-MB-231 breast)	GI50 (PC-3 prostate)	TGI (PC-3 prostate)	GI50 (NCI/ADR-RES ovarian)	TGI (NCI/ADR-RES ovarian)	GI50 (MDA-MB-435)	TGI (MDA-MB-435)	GI50 (HS 578T breast)	TGI (HS 578T breast)	GI50 (BT-549 breast)	TGI (BT-549 breast)
COc1ccc(Nc2ncccc2C(=O)NCc2cn(Cc3cccc(Oc4ccccc4)c3)nn2)c(OC)c1	3.63 µM	> 28.1 µM	1.36 µM	> 100 µM	2.12 µM	35.5 µM	0.24 µM	0.707 µM	9.52 µM	> 100 µM	2.99 µM	> 100 µM
Oc1[nH]c2ccccc2c1/C=c1/ccc2c(c1)N=C(c1cc(F)cc(F)c1)N=2	3.63 µM	19.5 µM	3.37 µM	16.7 µM	4.18 µM	17.7 µM	1.92 µM	5.08 µM	5.08 µM	31.9 µM	2.13 µM	12.1 µM
CCCCCCn1c2c(c3c(O)cccc31)C(=O)c1ccccc1-2	16.3 µM	33.4 µM	19.6 µM	36.6 µM	18 µM	33 µM	20.3 µM	44.9 µM	24.2 µM	52.6 µM	16.4 µM	33.9 µM
CN1c2ccccc2S(=O)(=O)n2c(COc3ccccc3)nnc21	–	> 100 µM	–	> 100 µM	–	> 100 µM	–	> 100 µM	–	> 100 µM	–	> 100 µM
Cn1cc(-c2ccc3nnc(C(F)(F)c4ccc5ncccc5c4)n3n2)cn1	34.2 µM	> 100 µM	85 µM	> 100 µM	62.2 µM	> 100 µM	57.8 µM	> 100 µM	34.2 µM	> 100 µM	86.8 µM	> 100 µM
CC(=O)Nc1ccc(Cc2ccc3[nH]c(=O)cc(C)c3c2)cc1	–	> 100 µM	–	> 100 µM	–	> 100 µM	–	> 100 µM	–	> 100 µM	–	> 100 µM
COc1cc2oc(-c3ccc(O)cc3)cc(=O)c2c(OC)c1O	–	> 100 µM	–	–	–	> 100 µM	–	> 100 µM	–	> 100 µM	–	> 100 µM
COC(=O)[C@H](C)[C@@H]1CC[C@](C)(CCC2=C(C)CCCC2(C)C)OO1	–	> 25 µM	–	> 25 µM	–	> 25 µM	–	> 25 µM	–	> 25 µM	–	> 25 µM
CCOC(=O)Nc1cc(-c2ccc(C)c(NS(C)(=O)=O)c2)nn2c(C)nnc12	0.807 µM	20.4 µM	1.36 µM	> 100 µM	6.26 µM	> 100 µM	1.33 µM	41.7 µM	0.563 µM	6.82 µM	5.35 µM	> 100 µM
CNC(=O)c1cc(Oc2ccc3nc(NC(=O)Nc4cc(C(F)(F)F)cc(C(F)(F)F)c4)sc3c2)ccn1	0.829 µM	2.62 µM	0.611 µM	2.29 µM	–	–	1.04 µM	2.7 µM	1.65 µM	4.84 µM	1.34 µM	3.07 µM
O=C(c1ccccc1)c1c2n(c3c1cc(O)c1ccccc13)CCN2	2.13 µM	4.51 µM	2.69 µM	13 µM	23.5 µM	> 100 µM	1.99 µM	3.73 µM	10.9 µM	> 100 µM	13.5 µM	30.6 µM
N/C(=N\C(N)=N\c1nc2ccccc2s1)c1ccnc(Br)c1	9.13 µM	> 100 µM	4.61 µM	> 100 µM	2.62 µM	7.95 µM	2.1 µM	7.32 µM	3.76 µM	46 µM	4.32 µM	> 100 µM
Cc1cc2nc3c4cc([N+](=O)[O-])ccc4n(CCN(C)C)c3nc2cc1C	0.602 µM	> 32.7 µM	0.548 µM	10.7 µM	0.382 µM	4.6 µM	0.635 µM	1.96 µM	1.39 µM	5.87 µM	2 µM	5.85 µM
CCN(CC)CC(O)c1cc(-c2ccc(Cl)cc2)nc2cc(Cl)ccc12 (stereo unspecified)	1.4 µM	3.9 µM	2.08 µM	5.98 µM	2.25 µM	6.04 µM	1.71 µM	3.32 µM	2.51 µM	7.32 µM	4.75 µM	14.8 µM
O=C(NCCCl)NCc1ccccc1	–	> 100 µM	–	> 100 µM	–	> 100 µM	–	> 100 µM	–	> 100 µM	–	–
CCN(CC)CCNC(=O)C(Cl)=C1C(Cl)=C(Cl)C(Cl)=C1Cl	3.83 µM	31.3 µM	4.23 µM	41.3 µM	2.98 µM	> 100 µM	2.24 µM	6.54 µM	3.01 µM	25.3 µM	12.6 µM	25.3 µM
COc1ccc2c(c1)CC1N(C)CCC13CCCCC23 (stereo unspecified)	–	> 100 µM	–	> 100 µM	–	> 100 µM	–	> 100 µM	–	> 100 µM	–	> 100 µM
COc1ccc2c(c1)C(=O)c1c-2c(OCCN2CCCCC2)nc2ccc(OC)cc12	2.71 µM	15.3 µM	2.33 µM	21.3 µM	0.761 µM	10.3 µM	0.648 µM	2.28 µM	4.5 µM	22.8 µM	8.26 µM	23.3 µM
COc1cc(OC)c(/C=C/C(=O)c2c(O)cc(OC)c(C3CCN(C)CC3)c2OC)c(OC)c1	–	–	1.5 µM	2.86 µM	–	–	1.53 µM	2.92 µM	1.81 µM	4.29 µM	1.43 µM	2.73 µM
Nc1nc(Cl)nc2c1ncn2C1OC(CO)C(O)C1O (stereo unspecified)	> 100 µM	> 100 µM	> 100 µM	> 100 µM	0.579 µM	> 100 µM	3.01 µM	> 100 µM	> 100 µM	> 100 µM	16.8 µM	> 100 µM
Cc1ccnc(NC(c2ccccc2)c2ccc3cccnc3c2O)c1 (stereo unspecified)	5.65 µM	97.1 µM	5.94 µM	> 100 µM	2.47 µM	14.9 µM	4.18 µM	30.5 µM	3.21 µM	35.1 µM	–	–

— PubChem BioAssay (NCI)
